From publication PMC9298352, “Design, Synthesis and Structural Analysis of Glucocerebrosidase Imaging Agents” (Chemistry (Weinheim an Der Bergstrasse, Germany), 2021)

Molecular target: T1, human GBA2 (from lysates of GBA2 overexpressed cells) (Homo sapiens, UniProt Q9HCG7)
T1 construct: expressed in transfected cells; host or cells: HEK293T
T1 sequence (Q9HCG7 1-927): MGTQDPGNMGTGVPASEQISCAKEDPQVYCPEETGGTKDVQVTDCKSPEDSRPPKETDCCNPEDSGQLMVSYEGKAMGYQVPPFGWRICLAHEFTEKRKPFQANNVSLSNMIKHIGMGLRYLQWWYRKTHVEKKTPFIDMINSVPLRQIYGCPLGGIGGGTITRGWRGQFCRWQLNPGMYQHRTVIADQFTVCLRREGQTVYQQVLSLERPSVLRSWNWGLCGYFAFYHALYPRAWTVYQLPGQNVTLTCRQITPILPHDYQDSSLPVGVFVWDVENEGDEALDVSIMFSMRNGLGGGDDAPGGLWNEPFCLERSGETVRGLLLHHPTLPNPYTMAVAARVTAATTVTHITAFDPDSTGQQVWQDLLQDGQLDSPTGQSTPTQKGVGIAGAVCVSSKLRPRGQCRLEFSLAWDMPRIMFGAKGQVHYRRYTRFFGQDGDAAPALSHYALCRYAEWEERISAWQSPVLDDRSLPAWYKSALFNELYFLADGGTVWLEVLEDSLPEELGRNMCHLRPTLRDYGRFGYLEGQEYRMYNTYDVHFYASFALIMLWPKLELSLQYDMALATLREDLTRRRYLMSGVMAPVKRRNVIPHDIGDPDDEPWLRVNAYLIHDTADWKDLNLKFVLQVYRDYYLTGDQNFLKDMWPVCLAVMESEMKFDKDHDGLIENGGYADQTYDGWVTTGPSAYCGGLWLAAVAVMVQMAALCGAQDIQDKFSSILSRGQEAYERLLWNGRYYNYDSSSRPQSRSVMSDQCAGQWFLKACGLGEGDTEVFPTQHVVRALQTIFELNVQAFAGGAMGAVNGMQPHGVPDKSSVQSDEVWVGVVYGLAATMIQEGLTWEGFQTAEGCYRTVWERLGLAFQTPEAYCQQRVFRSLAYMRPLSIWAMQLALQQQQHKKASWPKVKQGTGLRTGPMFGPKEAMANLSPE
Assay: In vitro apparent IC50, fluorogenic substrate assay on GBA2 in lysates of overexpressing cells
Assay type: biochemical
Method: All assays were performed in duplicate sets, each with 3 technical replicates at each inhibitor concentration. DMSO concentration was kept at 0.5 %–1 % (v/v) in all assays during incubation with compounds. In vitro apparent IC50 values were calculated by fitting data with [inhibitor] vs. response‐various slope (four parameters) function using Graphpad Prism 7.0 software. Average values and standard deviations were calculated from the two sets.

Compound: CCCCCCCCN1[C@@H]2[C@H](Cn3cc(CNC(=O)CCCCC[N+]4=C(/C=C/C=C/C=C5/N(C)c6ccccc6C5(C)C)C(C)(C)c5ccccc54)nn3)[C@@H](O)[C@H](O)[C@@H](O)[C@@H]21 (stereo partly shown) [ABP 6]
- IC50: > 100 µM
